Consider 1 substance from patent publication US20080004561A1, “Method for Treating Oncological, Virulent and Somatic Diseases, Method for Controlling Treatment Efficiency, Pharmaceutical Agents and Composition for Carrying Out Said Treatment” (priority 2005, published 2008).

“Also recorded” adds a separate entry of the source.

In one experiment the test system is blood plasma DNA. Nature of the experiment: Blood plasma DNA concentration after end of DNase treatment course (Example 2). Type of experiment: in vivo. The following applies: Erlich carcinoma mice. As to the method: Fresh blood plasma (not more than 3-4 hours after isolation) with anticoagulant (sodium citrate) addition was centrifuged on Ficoll-PlaquePlus (Amersham-Pharmacia) step at 1500 g for 20 minutes at room temperature. Plasma (½ of all amount) was neatly isolated avoiding touching cells sediment on ficoll step and was centrifuged at 10 000 g for 30 minutes to eliminate cells and debris. Supernatant was taken away not touching sediment and up to 1% of sarcosile, up to 50 mM of tris HCl pH 7,6, up to 20 mM EDTA, up to 400 mM NaCl and equal volume of phenol—chloroform mixture 1:1 were added. Received emulsion was incubated at 65° C. for 2 hours than phenol-chloroform was separated by centrifuging at 5000 g during 20 minutes at room temperature. Deproteinization by phenol-chloroform method was identically repeated for three times after what water phase was processed by chloroform and after it by diethyl ether.
Organic solvents' separation was done by centrifuging at 5000 g during 15 minutes. Equal part of isopropanol was added to water phase and incubated during night at 0° C.
After sedimentation nucleic acids were separated by centrifuging at 10 000 g during 30 minutes. […]
DNA was isolated by method that is mentioned above. DNA amount was spectrophotometrically measured. […]

For experiment [1], the system named is Staphylococcus aureus VT-2003R. The experiment can be described thus: DNase use for treatment of the experimental sepsis (Example 5). The note with it: mice, DNase 500 mkg/kg intraperitoneally four times a day, 1-3 days after infection. In kind it is in vivo. An excerpt: White not thoroughbred mice were used for experiment. Animals' weight was 24-26 grams. Pathogenic strain of Staphylococcus aureus VT-2003R at 1×10^10 bacteria/animal dose was inoculated to retroorbital sinus of animals. DNase was intraperitoneally administered. Isotonic solution of sodium chloride or Penicillin was administrated to control groups. Each experimental group contained 10 mice. Intraperitoneal administration of compound (DNAase) four times a day at 500 mkg/kg dose continued for 1-3 days after infection. Penicillin was intramusculary administrated. Efficiency of action was estimated by number of animals that stayed alive after the death of the last one in control group. All animals have died to the third day of the experiment in control group. Six animals stayed alive to the third day of the experiment in the group that administrated DNase. Protection was […]. Received data specify an opportunity and efficiency of DNase use for infections' treatment.

Experiment [2] relates to DNA from biofilm matrix of Escherichia coli. Nature of the experiment: DNAase I processing of DNA from biofilm matrix, electrophoresis (Example 12). In kind it is biochemical. The note with it: DNA processed for 3 hours by DNAase I at 37° C. An excerpt:
(§1) Biofilms of Escherichia coli and Staphylococcus aureus were used in experiments. Biofilms were washed off by phosphate buffer from agar. Cells and matrix were separated by centrifuging. Standard phenol-chloroform method was used for DNA extraction from matrix. DNA amount was estimated by spectrophotometric analysis with wave's length 260 nm (SF-46). Received DNA was researched by electrophoresis in 0.8% […] gel with ethidium bromide staining.
(§2) One part of received DNA was processed for 3 hours by DNAase I at 37° C. After electrophoretic separation of processed and not processed DNA it was found out that: […]

Experiment [3] deals with DNA from biofilm matrix of Staphylococcus aureus. Described as above. Type of experiment: biochemical. The note with it: DNA processed for 3 hours by DNAase I at 37° C.
Text: as §1, §2

The test system of experiment [4] is LLC tumor (highly metastatic strain). Nature of the experiment: DNase I influence on life span of mice transplanted with LLC tumor, highly metastatic strain (Example 16). In kind it is in vivo, C57B1 mice. The note with it: for Tumor's growth at the last day of DNase treatment: DNase 1 mg/kg two times a day, growth renewed after withdrawal; for 30 day (number of alive\number of dead in group) / 50 day (number of alive\number of dead in group): DNase 1 mg/kg intraperitoneally two times a day. As to the method: Five groups of LLC transplanted mice participated in the experiment.
Group 1—7 mice (control).
Group 2—6 mice were treated with intraperitoneal administration of DNase at 1 mg/kg dose two times a day starting from 3 up to 7 day after tumor transplantation.
Group 3—6 mice were treated with intraperitoneal administration of DNase at 1 mg/kg dose two times a day starting from 3 up to 10 day after tumor transplantation.
Group 4—6 mice were treated with intraperitoneal administration of DNase at 1 mg/kg dose two times a day starting from 3 up to 15 day after tumor transplantation.
Group 5—6 mice were treated with intraperitoneal administration of DNase at 1 mg/kg dose two times a day starting from 3 up to 18 day after tumor transplantation.
Results of experiment were estimated according to animals' survival on the 30 and 50 day after tumor transplantation.

Another experiment has as its system tumor cells. Nature of the experiment: In vitro effect of DNase I on tumor cells' growth. In kind it is cell-based. The following applies: DNase I concentration up to 100 mkg/ml.
Experiment [5] concerns HPRT gene's mutations in blood T-lymphocytes. The experiment can be described thus: Frequency of HPRT gene's mutations in blood T-lymphocytes, somatic mosaicism model (Example 18). Type of experiment: in vivo. The note with it: patients on Neovir after tumor surgery; human recombinant DNase I 200 mkg/kg intravenously 4 times a day during three weeks. An excerpt:
Frequency of HPRT gene's mutations in blood T-lymphocytes was studied as a model of somatic mosaicism. Human HPRT gene (chromosome Xq26) encodes enzyme that is constitutionally expressing but not essential and is involved in metabolism of purine nucleotides. Cloning was done according to Bigbee W. method (Bigbee W. Et al., Mutation Res., 1998, v. 397, pp. 119-136).

For the substance DNase, the figures for the “Blood plasma DNA concentration” value with blood plasma DNA (DNase 0.5 mg/kg four times a day) and with blood plasma DNA (DNase 1 mg/kg twice a day) were 38.5 ng/mL and 55.1 ng/mL, respectively. The “Number of animals that stayed alive to the third day” value in experiment [1] (10 per group) is reported as “Six”. Moreover, the Protection in experiment [1] came to 67%. Besides, the “DNA band after electrophoresis” value in experiment [2] and in experiment [3] was “disappeared completely” each time. Further, the “Tumor's growth at the last day of DNase treatment” value in experiment [4] (2nd group, day 3 to 7) is listed as “significant inhibition of tumor's growth”; in experiment [4] (3rd group, day 3 to 10), “significant inhibition of tumor's growth”. The figures for the “30 day (number of alive\number of dead in group)” value in experiment [4] (day 3 to 7) and in experiment [4] (day 3 to 10) were 0-6 and 3-6, respectively. The results for the “50 day (number of alive\number of dead in group)” value in experiment [4] (day 3 to 7), in experiment [4] (day 3 to 10) and in experiment [4] (day 3 to 15) were 0-6, 0-6 and 3-3, respectively. The “Inhibition of tumor growth at day 18” value in experiment [4] (DNase 1 mg/kg two times a day from 3rd up to 18th day) is listed as “more than 95%”. Besides, the “Effect on tumor cells' growth in vitro” value with tumor cells is on record as “does not cause direct cytotoxic effect; also recorded: not seen any suppressive effect”. In experiment [5], the “Incidence of HPRT-deficient clones, times less than with immunostimulating therapy only” value worked out at 3 times.
